Experimental data as given in patent US12479847B2 (DANA-FARBER CANCER INSTITUTE, INC., priority 2019, dated 2025).

What was measured:
Assay in all cases: KINOMEscan (ScanMAX) kinase profiling
Format in all cases: binding
panel of 468 kinases [1] = biological target: T1, panel of 468 kinases (Homo sapiens, UniProt Q9Y2H9); conditions: MAST1; 1 μM; read-out: % control
T1 construct: purchased KINOMEscan (ScanMAX) service

panel of 468 kinases [2] = biological target: T2, panel of 468 kinases (Homo sapiens, UniProt P42336, C420R); conditions: PIK3CA(C420R); 1 μM; read-out: % control
T2 construct: purchased KINOMEscan (ScanMAX) service
T2 sequence (P42336 whole entry C420R): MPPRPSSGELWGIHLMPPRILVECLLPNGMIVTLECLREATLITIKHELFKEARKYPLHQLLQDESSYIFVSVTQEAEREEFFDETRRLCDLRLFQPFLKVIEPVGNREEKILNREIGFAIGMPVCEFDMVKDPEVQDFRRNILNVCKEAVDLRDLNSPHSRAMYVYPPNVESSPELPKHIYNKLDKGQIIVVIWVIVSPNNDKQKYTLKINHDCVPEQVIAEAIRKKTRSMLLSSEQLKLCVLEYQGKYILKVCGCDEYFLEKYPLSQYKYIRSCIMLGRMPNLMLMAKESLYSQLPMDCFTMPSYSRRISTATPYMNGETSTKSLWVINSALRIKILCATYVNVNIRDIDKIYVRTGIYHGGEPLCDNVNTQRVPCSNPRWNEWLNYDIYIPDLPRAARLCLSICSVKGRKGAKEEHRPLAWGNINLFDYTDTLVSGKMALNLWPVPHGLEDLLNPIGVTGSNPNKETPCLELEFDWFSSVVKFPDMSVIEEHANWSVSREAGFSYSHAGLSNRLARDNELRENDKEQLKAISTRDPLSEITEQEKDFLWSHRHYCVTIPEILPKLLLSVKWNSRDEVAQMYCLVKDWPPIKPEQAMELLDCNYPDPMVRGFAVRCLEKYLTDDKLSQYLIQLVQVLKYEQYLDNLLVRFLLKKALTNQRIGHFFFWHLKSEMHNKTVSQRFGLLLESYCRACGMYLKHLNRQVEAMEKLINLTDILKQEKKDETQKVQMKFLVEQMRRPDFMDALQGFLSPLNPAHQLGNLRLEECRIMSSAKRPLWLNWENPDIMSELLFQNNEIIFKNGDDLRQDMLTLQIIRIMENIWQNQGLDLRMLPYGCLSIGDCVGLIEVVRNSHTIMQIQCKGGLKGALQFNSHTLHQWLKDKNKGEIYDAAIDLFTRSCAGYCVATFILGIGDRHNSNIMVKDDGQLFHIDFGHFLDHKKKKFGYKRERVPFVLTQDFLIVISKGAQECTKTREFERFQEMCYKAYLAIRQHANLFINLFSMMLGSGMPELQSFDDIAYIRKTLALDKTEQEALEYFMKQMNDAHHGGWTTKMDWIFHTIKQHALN

panel of 468 kinases [3] = biological target: T3, panel of 468 kinases (Homo sapiens, UniProt O94921); conditions: PFTK1; 1 μM; read-out: % control
T3 construct: purchased KINOMEscan (ScanMAX) service
T3 sequence (O94921 whole entry): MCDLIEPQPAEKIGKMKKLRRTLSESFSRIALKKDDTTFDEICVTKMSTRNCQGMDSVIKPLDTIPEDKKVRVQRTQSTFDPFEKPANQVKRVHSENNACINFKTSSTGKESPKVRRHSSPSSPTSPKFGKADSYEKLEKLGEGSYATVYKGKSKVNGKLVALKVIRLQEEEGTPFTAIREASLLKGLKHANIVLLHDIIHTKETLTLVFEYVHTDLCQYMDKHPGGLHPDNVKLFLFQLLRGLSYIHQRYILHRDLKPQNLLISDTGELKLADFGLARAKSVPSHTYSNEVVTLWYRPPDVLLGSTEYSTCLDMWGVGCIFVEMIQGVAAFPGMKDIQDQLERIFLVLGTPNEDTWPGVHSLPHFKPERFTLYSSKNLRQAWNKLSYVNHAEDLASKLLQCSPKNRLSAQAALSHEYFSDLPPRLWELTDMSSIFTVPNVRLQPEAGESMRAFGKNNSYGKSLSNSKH

panel of 468 kinases [4] = biological target: T4, panel of 468 kinases (Homo sapiens, UniProt O43283); conditions: LZK; 1 μM; read-out: % control
T4 construct: purchased KINOMEscan (ScanMAX) service
T4 sequence (O43283 1-966): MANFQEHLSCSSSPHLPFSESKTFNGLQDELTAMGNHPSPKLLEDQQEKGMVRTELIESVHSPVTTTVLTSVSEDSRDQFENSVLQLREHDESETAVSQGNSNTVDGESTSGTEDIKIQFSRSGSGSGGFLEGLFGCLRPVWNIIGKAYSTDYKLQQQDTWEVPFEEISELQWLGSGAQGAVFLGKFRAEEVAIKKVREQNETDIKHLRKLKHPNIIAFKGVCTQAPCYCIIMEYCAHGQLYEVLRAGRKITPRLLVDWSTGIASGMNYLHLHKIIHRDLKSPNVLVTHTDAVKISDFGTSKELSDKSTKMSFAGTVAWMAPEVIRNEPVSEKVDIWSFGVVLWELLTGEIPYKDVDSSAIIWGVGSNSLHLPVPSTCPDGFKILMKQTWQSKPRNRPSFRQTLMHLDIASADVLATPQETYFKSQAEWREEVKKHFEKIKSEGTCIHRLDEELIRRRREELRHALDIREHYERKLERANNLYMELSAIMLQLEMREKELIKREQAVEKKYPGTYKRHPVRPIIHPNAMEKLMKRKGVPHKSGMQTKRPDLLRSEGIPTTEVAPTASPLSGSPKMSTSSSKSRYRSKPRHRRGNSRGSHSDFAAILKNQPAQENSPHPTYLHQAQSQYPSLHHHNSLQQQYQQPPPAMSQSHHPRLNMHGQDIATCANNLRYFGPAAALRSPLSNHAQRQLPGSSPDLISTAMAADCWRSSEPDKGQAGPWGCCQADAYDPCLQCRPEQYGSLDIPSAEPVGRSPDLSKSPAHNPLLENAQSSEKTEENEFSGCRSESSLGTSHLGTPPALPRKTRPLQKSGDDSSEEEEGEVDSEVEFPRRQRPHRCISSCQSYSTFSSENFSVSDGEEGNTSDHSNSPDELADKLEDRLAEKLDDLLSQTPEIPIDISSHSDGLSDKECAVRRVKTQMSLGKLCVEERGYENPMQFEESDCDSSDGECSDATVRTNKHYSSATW

panel of 468 kinases [5] = biological target: T5, panel of 468 kinases (Homo sapiens, UniProt Q9Y243); conditions: AKT3; 1 μM; read-out: % control
T5 construct: purchased KINOMEscan (ScanMAX) service
T5 sequence (Q9Y243 whole entry): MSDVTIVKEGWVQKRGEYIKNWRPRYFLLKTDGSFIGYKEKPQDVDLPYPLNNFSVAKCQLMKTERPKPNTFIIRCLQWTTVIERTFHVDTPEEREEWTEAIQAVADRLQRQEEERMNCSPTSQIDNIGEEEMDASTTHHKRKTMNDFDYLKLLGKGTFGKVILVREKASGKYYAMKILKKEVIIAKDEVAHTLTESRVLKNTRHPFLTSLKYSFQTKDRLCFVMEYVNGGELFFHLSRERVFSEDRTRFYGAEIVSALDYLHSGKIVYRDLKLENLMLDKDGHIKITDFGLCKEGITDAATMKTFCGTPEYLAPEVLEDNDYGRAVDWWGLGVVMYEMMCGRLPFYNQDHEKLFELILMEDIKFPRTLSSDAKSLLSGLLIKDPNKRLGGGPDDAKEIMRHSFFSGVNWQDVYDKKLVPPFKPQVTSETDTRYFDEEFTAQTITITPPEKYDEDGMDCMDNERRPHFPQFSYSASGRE

panel of 468 kinases [6] = biological target: T6, panel of 468 kinases (Homo sapiens, UniProt Q8IW41); conditions: MAPKAPK5; 1 μM; read-out: % control
T6 construct: purchased KINOMEscan (ScanMAX) service
T6 sequence (Q8IW41 1-473): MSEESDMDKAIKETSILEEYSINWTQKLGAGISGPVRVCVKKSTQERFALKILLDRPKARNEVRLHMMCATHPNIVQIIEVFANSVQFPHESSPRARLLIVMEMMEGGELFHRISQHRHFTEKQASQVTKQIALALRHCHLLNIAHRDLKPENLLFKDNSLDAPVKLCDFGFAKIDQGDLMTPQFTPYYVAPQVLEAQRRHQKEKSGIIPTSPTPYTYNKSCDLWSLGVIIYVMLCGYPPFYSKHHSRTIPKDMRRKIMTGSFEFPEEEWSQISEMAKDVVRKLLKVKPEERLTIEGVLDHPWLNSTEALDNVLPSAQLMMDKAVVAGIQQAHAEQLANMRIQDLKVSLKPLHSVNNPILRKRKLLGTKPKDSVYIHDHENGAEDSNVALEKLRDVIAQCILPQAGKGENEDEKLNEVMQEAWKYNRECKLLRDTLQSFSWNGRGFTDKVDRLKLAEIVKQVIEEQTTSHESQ

T1 sequence (Q9Y2H9 whole entry): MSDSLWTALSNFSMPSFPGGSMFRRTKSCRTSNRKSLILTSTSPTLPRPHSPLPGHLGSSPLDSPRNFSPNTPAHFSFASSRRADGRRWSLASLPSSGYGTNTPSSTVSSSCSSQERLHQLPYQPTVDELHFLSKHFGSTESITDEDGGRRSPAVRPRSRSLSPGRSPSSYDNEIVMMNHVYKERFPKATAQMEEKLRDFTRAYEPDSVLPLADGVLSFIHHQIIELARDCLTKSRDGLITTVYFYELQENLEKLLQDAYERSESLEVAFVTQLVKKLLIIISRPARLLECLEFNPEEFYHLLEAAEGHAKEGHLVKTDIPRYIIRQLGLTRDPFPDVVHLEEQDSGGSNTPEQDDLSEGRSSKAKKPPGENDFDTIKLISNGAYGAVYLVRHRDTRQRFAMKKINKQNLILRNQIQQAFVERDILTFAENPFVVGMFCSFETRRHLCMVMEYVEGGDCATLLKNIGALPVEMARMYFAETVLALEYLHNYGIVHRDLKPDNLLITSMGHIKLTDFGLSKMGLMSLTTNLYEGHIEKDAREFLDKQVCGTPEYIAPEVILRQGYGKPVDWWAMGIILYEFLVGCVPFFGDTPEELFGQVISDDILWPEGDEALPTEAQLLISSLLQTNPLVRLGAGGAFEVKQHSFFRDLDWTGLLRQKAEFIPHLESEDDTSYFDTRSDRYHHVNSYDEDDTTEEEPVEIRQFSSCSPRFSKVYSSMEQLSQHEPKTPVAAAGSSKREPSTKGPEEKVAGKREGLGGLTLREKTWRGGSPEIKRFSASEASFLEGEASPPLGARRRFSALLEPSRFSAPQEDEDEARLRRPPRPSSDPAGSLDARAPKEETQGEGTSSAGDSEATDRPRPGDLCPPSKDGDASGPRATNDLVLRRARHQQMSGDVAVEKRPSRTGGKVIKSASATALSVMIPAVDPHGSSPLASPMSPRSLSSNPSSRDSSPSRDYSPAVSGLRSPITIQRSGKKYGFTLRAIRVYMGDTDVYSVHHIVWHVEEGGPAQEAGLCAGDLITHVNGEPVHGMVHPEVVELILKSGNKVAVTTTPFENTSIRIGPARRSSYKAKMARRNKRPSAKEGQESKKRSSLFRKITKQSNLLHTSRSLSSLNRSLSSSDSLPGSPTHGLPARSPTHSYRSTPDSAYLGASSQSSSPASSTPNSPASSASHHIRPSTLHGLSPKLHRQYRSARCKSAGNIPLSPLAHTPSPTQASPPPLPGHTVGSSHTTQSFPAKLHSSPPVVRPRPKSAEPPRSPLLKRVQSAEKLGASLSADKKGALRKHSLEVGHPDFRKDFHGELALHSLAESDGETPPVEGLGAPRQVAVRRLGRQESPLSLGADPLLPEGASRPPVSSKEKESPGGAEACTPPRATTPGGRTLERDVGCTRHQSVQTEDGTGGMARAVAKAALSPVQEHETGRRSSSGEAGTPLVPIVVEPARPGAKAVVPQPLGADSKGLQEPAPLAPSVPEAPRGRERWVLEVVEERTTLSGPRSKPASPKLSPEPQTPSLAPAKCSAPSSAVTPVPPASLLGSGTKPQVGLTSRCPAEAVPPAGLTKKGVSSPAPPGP

Compound	remaining binding at 1 µM (panel of 468 kinases [1]) [%]	remaining binding at 1 µM (panel of 468 kinases [2]) [%]	remaining binding at 1 µM (panel of 468 kinases [3]) [%]	remaining binding at 1 µM (panel of 468 kinases [4]) [%]	remaining binding at 1 µM (panel of 468 kinases [5]) [%]	remaining binding at 1 µM (panel of 468 kinases [6]) [%]
CNc1nc(Nc2ccc(C(=O)N3CCC(N4CCOCC4)CC3)c3c2OCO3)nc2[nH]cc(Cl)c12 [Compound 75, (7-((5-chloro-4-(methylamino)-7H-pyrrolo[2,3-d]pyrimidin-2-yl)amino)benzo[d][1,3]dioxol-4-yl)(4-morpholinopiperidin-1-yl)methanone]	93	100	91	57	100	43
CNc1nc(Nc2ccc(S(=O)(=O)N3CCC(N4CCOCC4)CC3)cc2OC)nc2[nH]cc(Cl)c12 [Compound 12, 5-chloro-N2-(2-methoxy-4-((4-morpholinopiperidin-1-yl)sulfonyl)phenyl)-N4-methyl-7H-pyrrolo[2,3-d]pyrimidine-2,4-diamine]	100	100	75	63	100	67
CNc1nc(Nc2ccc(P3(=O)CCN(C4CCOCC4)CC3)cc2OC)nc2[nH]cc(Cl)c12 [Compound 77, 4-(4-((5-chloro-4-(methylamino)-7H-pyrrolo[2,3-d]pyrimidin-2-yl)amino)-3-methoxyphenyl)-1-(tetrahydro-2H-pyran-4-yl)-1,4-azaphosphinane 4-oxide]	97	100	100	62	100	46
